Tests used:
Format in all cases: functional, organism-based
Cryptosporidium parvum [1] = assay: Antiparasitic activity against Cryptosporidium parvum assessed as parasitic growth inhibition measured for 24 hrs
Cryptosporidium parvum [2] = assay: Antiparasitic activity against Cryptosporidium parvum infected in human HCT-8 cells assessed as parasitic growth inhibition measured for 48 hrs by fluorescence based microscopic analysis; settings: for EC50: HCT-8, 48 h; for EC90: HCT-8, time 48 hrs
Cryptosporidium parvum [3] = assay: Antiparasitic activity against Cryptosporidium parvum infected in human HCT-8 cells assessed as parasitic growth inhibition incubated for 45 mins followed by compound washout further infected in cells and measured after 48 hrs by microscopic analysis
Cryptosporidium parvum [4] = assay: Antiparasitic activity against Cryptosporidium parvum assessed as parasitic growth inhibition

Structure (SMILES): C[C@H](NC(=O)Cc1cc(F)cc(F)c1)C(=O)N[C@H](C(=O)OC(C)(C)C)c1ccccc1
- EC50 (Cryptosporidium parvum [1]): 12500 nM

Structure (SMILES): CN1C(=O)[C@H](NC(=O)[C@H](CCC(F)(F)F)CC(=O)N2CCCCC2)N=C(c2ccccc2)c2cc(Cl)c(OC3COC3)cc21
- EC50 (Cryptosporidium parvum [2]): 5470 nM
- EC90 (Cryptosporidium parvum [2]): 12800 nM

Structure (SMILES): CN1C(=O)[C@H](NC(=O)[C@H](CCC(F)(F)F)CC(=O)N2CCCCC2)N=C(c2ccccc2)c2ccc(OC3COC3)cc21
- EC50 (Cryptosporidium parvum [2]): 2290 nM
- EC90 (Cryptosporidium parvum [2]): 4900 nM

Structure (SMILES): COc1ccc2c(c1)N(C)C(=O)[C@@H](NC(=O)[C@H](CCC(F)(F)F)CC(=O)N1CCCCC1)N=C2c1ccccc1
- EC50 (Cryptosporidium parvum [2]): 31 nM
- EC90 (Cryptosporidium parvum [2]): 66 nM

Structure (SMILES): CN1C(=O)[C@@H](NC(=O)[C@H](CCC(F)(F)F)CC(=O)N2CCCCC2)N=C(c2ccccc2)c2cc(Cl)c(OC3COC3)cc21
- EC50 (Cryptosporidium parvum [2]): 320 nM
- EC90 (Cryptosporidium parvum [2]): 960 nM

Structure (SMILES): CN1C(=O)[C@@H](NC(=O)[C@H](CCC(F)(F)F)CC(=O)N2CCCCC2)N=C(c2ccccc2)c2ccc(Oc3ccccc3)cc21
- EC50 (Cryptosporidium parvum [2]): 25 nM
- EC90 (Cryptosporidium parvum [2]): 55 nM

Structure (SMILES): CCCNC(=O)C[C@@H](CCC(F)(F)F)C(=O)N[C@H]1N=C(c2ccccc2)c2ccc(OC3COC3)cc2N(C)C1=O
- EC50 (Cryptosporidium parvum [2]): 350 nM
- EC90 (Cryptosporidium parvum [2]): 970 nM

Structure (SMILES): CCCNC(=O)C[C@H](CCC(F)(F)F)C(=O)N[C@H]1N=C(c2ccccc2)c2ccccc2N(C)C1=O
- EC50 (Cryptosporidium parvum [2]): > 25000 nM
- EC90 (Cryptosporidium parvum [2]): > 25000 nM

Structure (SMILES): CCCNC(=O)CCC(=O)N[C@H]1N=C(c2ccccc2)c2ccccc2N(C)C1=O
- EC50 (Cryptosporidium parvum [2]): > 25000 nM
- EC90 (Cryptosporidium parvum [2]): > 25000 nM

Structure (SMILES): CN1C(=O)[C@@H](NC(=O)[C@H](CCC(F)(F)F)CC(N)=O)N=C(c2ccccc2)c2ccccc21
- EC50 (Cryptosporidium parvum [2]): > 25000 nM
- EC90 (Cryptosporidium parvum [2]): > 25000 nM

Structure (SMILES): CN1C(=O)[C@@H](NC(=O)[C@H](CCC(F)(F)F)CC(=O)N2CCCCC2)N=C(c2ccccc2)c2ccc(OC3COC3)cc21
- EC50 (Cryptosporidium parvum [2]): 110 nM
- EC90 (Cryptosporidium parvum [2]): 210 nM

Structure (SMILES): CCN(CC)C(=O)C[C@@H](CCC(F)(F)F)C(=O)N[C@H]1N=C(c2ccccc2)c2ccccc2N(C)C1=O
- EC50 (Cryptosporidium parvum [2]): 110 nM
- EC90 (Cryptosporidium parvum [2]): 310 nM
- EC50 (Cryptosporidium parvum [3]): 500 nM

Structure (SMILES): CN1C(=O)[C@@H](NC(=O)[C@H](CCC(F)(F)F)CC(=O)N2CCCCC2)N=C(c2ccccc2)c2ccccc21
- EC50 (Cryptosporidium parvum [2]): 6.4 nM
- EC90 (Cryptosporidium parvum [2]): 16 nM

Structure (SMILES): CN1C(=O)[C@@H](NC(=O)[C@H](CCC(F)(F)F)CC(=O)N2CCOCC2)N=C(c2ccccc2)c2ccccc21
- EC50 (Cryptosporidium parvum [2]): 52 nM
- EC90 (Cryptosporidium parvum [2]): 100 nM

Structure (SMILES): CCCNC(=O)C(C)(C)CC(=O)N[C@H]1N=C(c2ccccc2)c2ccccc2N(C)C1=O
- EC50 (Cryptosporidium parvum [2]): > 25000 nM
- EC90 (Cryptosporidium parvum [2]): > 25000 nM

Structure (SMILES): CCCNC(=O)C[C@@H](CCC(F)(F)F)C(=O)N[C@@H]1N=C(c2ccccc2)c2ccc(OC3COC3)cc2N(C)C1=O
- EC50 (Cryptosporidium parvum [2]): > 25000 nM
- EC90 (Cryptosporidium parvum [2]): > 25000 nM

Structure (SMILES): CCCNC(=O)[C@@H](CCC(F)(F)F)CC(=O)N[C@H]1N=C(c2ccccc2)c2ccccc2N(C)C1=O
- EC50 (Cryptosporidium parvum [2]): > 25000 nM
- EC90 (Cryptosporidium parvum [2]): > 25000 nM

Structure (SMILES): CCCNC(=O)C[C@@H](CCC(F)(F)F)C(=O)N[C@H]1N=C(c2ccccc2)c2ccc(OC)cc2N(C)C1=O
- EC50 (Cryptosporidium parvum [2]): 81 nM
- EC90 (Cryptosporidium parvum [2]): 150 nM

Structure (SMILES): CCNC(=O)C[C@@H](CCC(F)(F)F)C(=O)N[C@H]1N=C(c2ccccc2)c2ccccc2N(C)C1=O
- EC50 (Cryptosporidium parvum [2]): 280 nM
- EC90 (Cryptosporidium parvum [2]): 610 nM

Structure (SMILES): CN1C(=O)[C@H](NC(=O)[C@H](CCC(F)(F)F)CC(=O)N2CCCCC2)N=C(c2ccccc2)c2ccc(OC3CCC3)cc21
- EC50 (Cryptosporidium parvum [2]): 2520 nM
- EC90 (Cryptosporidium parvum [2]): 11100 nM

Structure (SMILES): CN1C(=O)[C@@H](NC(=O)C[C@H](CCC(F)(F)F)C(N)=O)N=C(c2ccccc2)c2ccccc21
- EC50 (Cryptosporidium parvum [2]): 25000 nM
- EC90 (Cryptosporidium parvum [2]): > 25000 nM

Structure (SMILES): CCCNC(=O)CC(C)(C)C(=O)N[C@H]1N=C(c2ccccc2)c2ccccc2N(C)C1=O
- EC50 (Cryptosporidium parvum [2]): > 25000 nM
- EC90 (Cryptosporidium parvum [2]): > 25000 nM

Structure (SMILES): CN1C(=O)[C@H](NC(=O)[C@H](CCC(F)(F)F)CC(=O)N2CCCCC2)N=C(c2ccccc2)c2ccc(Oc3ccccc3)cc21
- EC50 (Cryptosporidium parvum [2]): 1690 nM
- EC90 (Cryptosporidium parvum [2]): 3610 nM

Structure (SMILES): CCC[C@H](CC(=O)N1CCCC1)C(=O)N[C@H]1N=C(c2ccccc2)c2ccccc2N(C)C1=O
- EC50 (Cryptosporidium parvum [2]): 110 nM
- EC90 (Cryptosporidium parvum [2]): 230 nM

Structure (SMILES): CCCN(CCC)C(=O)C[C@@H](CCC(F)(F)F)C(=O)N[C@H]1N=C(c2ccccc2)c2ccccc2N(C)C1=O
- EC50 (Cryptosporidium parvum [2]): 1450 nM
- EC90 (Cryptosporidium parvum [2]): 2790 nM

Structure (SMILES): CN1C(=O)[C@@H](NC(=O)[C@H](CCC(F)(F)F)CC(=O)N2CCCCC2)N=C(c2ccccc2)c2ccc(OC3CCC3)cc21
- EC50 (Cryptosporidium parvum [2]): 77 nM
- EC90 (Cryptosporidium parvum [2]): 160 nM

Structure (SMILES): CCCNC(=O)C[C@@H](CCC(F)(F)F)C(=O)N[C@H]1N=C(c2ccccc2)c2ccccc2N(C)C1=O
- EC50 (Cryptosporidium parvum [2]): 18 nM
- EC90 (Cryptosporidium parvum [2]): 56 nM

Structure (SMILES): CN1C(=O)[C@@H](NC(=O)[C@H](CCC(F)(F)F)CC(=O)OC(C)(C)C)N=C(c2ccccc2)c2ccccc21
- EC50 (Cryptosporidium parvum [2]): 550 nM
- EC90 (Cryptosporidium parvum [2]): 1120 nM

Structure (SMILES): CN1C(=O)[C@@H](NC(=O)[C@H](CCC(F)(F)F)[C@H](CCC(F)(F)F)C(N)=O)N=C(c2ccccc2)c2ccccc21 [OSUGACESTAT]
- EC50 (Cryptosporidium parvum [4]): 1.8 nM
- EC50 (Cryptosporidium parvum [2]): 1.8 nM
- EC90 (Cryptosporidium parvum [2]): 2.3 nM

Structure (SMILES): CC(C)[C@H](O)C(=O)N[C@@H](C)C(=O)N[C@@H]1C(=O)N(C)CCc2ccccc21 [SEMAGACESTAT]
- EC50 (Cryptosporidium parvum [1]): 4200 nM

Source: ChEMBL document CHEMBL5247664, “Structure-activity relationship of BMS906024 derivatives for Cryptosporidium parvum growth inhibition” (Bioorg Med Chem Lett, 2023)
